# Source: US9458124B2, “Substituted pyran derivatives” (Wayne State University, priority 2013, dated 2016)
# Assays:
# [1] = molecular target: T1, SERT (Rattus norvegicus, UniProt P31652); test: SERT uptake inhibition, [3H]-5-HT, rat brain; format: biochemical; conditions: number in parentheses within cell
# T1 construct: from tissue; host or cells: rat brain
# [2] = molecular target: T2, DAT (Rattus norvegicus, UniProt P23977); test: DAT uptake inhibition, [3H]DA, rat brain; format: biochemical; conditions: number in parentheses within cell
# T2 construct: from tissue; host or cells: rat brain
# [3] = molecular target: T3, NET (Rattus norvegicus, UniProt Q63380); test: NET uptake inhibition, [3H]DA, rat brain; format: biochemical; conditions: number in parentheses within cell
# T3 construct: from tissue; host or cells: rat brain
# [4] = system: rats; test: Forced swimming test (animal model of depression), duration of immobility; format: in vivo, rat; conditions: sub-chronic oral administration, P<0.01
# Procedure: Compound D-525 was evaluated in Force Swim test which is a well-known animal model of depression. The test procedure consisted of a pretest and test session separated by 24 h. Drugs or vehicle were administered orally (p.o) by following the timeline as described in the standard protocol. Each rat underwent a 5-min swim session following drug administration, which was videotaped and scored later.
# All drugs were prepared freshly on the test days. Compound D-525 and imipramine were dissolved in deionized water. All drugs and vehicles were administered p.o. D-525 was administered at a dose of 12.5 and 25 mg/kg. An individual, blinded to the treatment, scored the videotapes for immobility. Immobility scores were analyzed by one way ANOVA test which indicated significant difference between drug treated animals and vehicle.
# FIG. 11 provides a bar chart showing the effect of sub-chronic oral administration of vehicle and D-525 on the duration of immobility in the forced swimming test in rats. […] Asterisks indicate a statistically significant difference toward control group that received saline p.o. **P<0.01. Each treatment group contained four to seven rats.
# T3 sequence (Q63380 1-617): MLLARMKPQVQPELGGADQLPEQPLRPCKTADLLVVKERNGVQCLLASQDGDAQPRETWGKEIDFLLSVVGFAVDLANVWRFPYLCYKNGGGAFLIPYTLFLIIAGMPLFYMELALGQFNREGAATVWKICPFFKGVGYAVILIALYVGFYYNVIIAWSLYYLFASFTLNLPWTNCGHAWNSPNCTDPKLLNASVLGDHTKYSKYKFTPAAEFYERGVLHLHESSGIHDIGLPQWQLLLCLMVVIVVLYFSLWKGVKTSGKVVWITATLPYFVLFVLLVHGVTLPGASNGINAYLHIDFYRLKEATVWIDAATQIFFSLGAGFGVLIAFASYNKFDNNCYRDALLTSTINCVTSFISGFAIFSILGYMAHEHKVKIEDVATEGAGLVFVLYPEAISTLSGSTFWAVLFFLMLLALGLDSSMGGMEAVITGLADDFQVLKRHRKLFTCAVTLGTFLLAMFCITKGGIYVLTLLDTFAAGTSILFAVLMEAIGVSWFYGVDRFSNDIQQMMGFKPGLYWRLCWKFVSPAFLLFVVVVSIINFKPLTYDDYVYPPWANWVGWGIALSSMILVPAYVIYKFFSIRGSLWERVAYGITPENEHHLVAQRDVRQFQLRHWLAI
# T1 sequence (P31652 whole entry): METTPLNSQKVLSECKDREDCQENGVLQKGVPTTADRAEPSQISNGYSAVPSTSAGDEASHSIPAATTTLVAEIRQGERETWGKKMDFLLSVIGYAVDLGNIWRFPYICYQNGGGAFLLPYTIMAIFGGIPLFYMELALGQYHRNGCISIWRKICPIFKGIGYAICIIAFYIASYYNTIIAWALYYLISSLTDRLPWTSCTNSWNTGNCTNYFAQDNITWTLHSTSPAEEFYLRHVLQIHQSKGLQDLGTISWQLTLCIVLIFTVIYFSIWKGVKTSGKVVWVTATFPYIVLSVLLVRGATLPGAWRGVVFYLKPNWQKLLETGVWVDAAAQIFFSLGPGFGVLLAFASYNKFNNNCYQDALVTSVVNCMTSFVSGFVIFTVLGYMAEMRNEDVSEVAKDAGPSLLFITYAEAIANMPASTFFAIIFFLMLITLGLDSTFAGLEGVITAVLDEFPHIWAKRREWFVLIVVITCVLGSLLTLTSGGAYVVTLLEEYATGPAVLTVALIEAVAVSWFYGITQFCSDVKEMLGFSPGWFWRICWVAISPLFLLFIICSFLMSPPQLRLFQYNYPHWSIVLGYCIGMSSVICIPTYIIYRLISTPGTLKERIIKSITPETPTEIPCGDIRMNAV
# T2 sequence (P23977 whole entry): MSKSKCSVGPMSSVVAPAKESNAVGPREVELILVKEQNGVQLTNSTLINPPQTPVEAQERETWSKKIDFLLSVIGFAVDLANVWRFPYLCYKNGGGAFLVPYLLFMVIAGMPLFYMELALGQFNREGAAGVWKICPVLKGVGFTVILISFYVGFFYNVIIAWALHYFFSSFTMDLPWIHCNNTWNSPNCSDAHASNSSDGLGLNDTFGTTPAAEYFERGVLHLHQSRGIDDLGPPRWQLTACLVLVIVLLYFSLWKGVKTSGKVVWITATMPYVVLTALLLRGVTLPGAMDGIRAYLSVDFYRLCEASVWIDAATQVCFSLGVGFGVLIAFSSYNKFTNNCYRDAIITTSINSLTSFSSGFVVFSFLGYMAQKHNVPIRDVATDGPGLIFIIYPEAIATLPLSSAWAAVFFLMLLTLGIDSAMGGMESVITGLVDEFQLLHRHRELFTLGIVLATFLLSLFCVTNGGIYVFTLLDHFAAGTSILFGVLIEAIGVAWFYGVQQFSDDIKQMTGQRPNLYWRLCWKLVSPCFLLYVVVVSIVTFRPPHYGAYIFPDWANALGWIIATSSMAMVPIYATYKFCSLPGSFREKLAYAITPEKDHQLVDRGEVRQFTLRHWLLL
compound,measurement,setting,value
"Cn1c(=O)oc2cc(CN[C@@H]3CO[C@H](C(c4ccc(F)cc4)c4ccc(F)cc4)C[C@H]3O)ccc21 [6f, D-525, 6-((((3R,4R,6S)-6-(bis(4-fluorophenyl)methyl)-4-hydroxytetrahydro-2H-pyran-3-yl)amino)methyl)-3-methylbenzo[d]oxazol-2(3H)-one]",Ki,[1],26.9 ± 2.6 nM
same,Ki,[2],25.3 ± 6.2 nM
same,Ki,[3],25.8 ± 7.7 nM
same,effect on duration of immobility in the forced swimming test vs vehicle (Dunnett's analysis),[4]; 12 mg/kg,statistically significant different compared to vehicle
same,effect on duration of immobility in the forced swimming test vs vehicle (Dunnett's analysis),[4]; 25 mg/kg,statistically significant different compared to vehicle
